US9733187B2, “Method of detecting bladder cancer by optical analysis of bodily fluids” (KING SAUD UNIVERSITY, priority 2015, dated 2017)

Tests used:
[1] = Porphyrin elimination after oral administration of 5-aminolevulinic acid; assay type: in vivo
Procedure: The patient is administered 5-aminolevulinic acid (also referred to as 8-aminolevulinic acid), which is the first compound in the porphyrin synthesis pathway (i.e., the pathway that leads to heme in mammals). The 5-aminolevulinic acid is preferably administered orally at a dosage of approximately 5 mg of 5-aminolevulinic acid per kilogram of the patient's body weight. The patient can drink water upon taking the 5-aminolevulinic acid. The patient can wait approximately eight hours before urinating.
Approximately eight hours after oral administration of the 5-aminolevulinic acid, a bodily fluid sample is collected from the patient, and this bodily fluid sample is optically analyzed to measure a concentration of porphyrin therein. Preferably, multiple bodily fluid samples are taken at two hour intervals (i.e., one initial sample at the time of administration, and then subsequent samples taken at two hours, four hours, six hours and eight hours after administration). The bodily fluid being analyzed may be urine and/or blood.
Porphyrin is synthesized by the 5-aminolevulinic acid which is administered to the patient.

[2] = porphyrin synthesized from administered 5-aminolevulinic acid; cited from earlier work

## C1=Cc2cc3ccc(cc4nc(cc5ccc(cc1n2)[nH]5)C=C4)[nH]3 [Porphyrin, porphyrin]
[1]; bladder cancer patients
  porphyrin retention time: up to eight
[1]; healthy person, after four hours following administration of 5-aminolevulinic acid
  porphyrin eliminated through urine: approximately 90%
[2]
  half-life: approximately two
